# From US20260317319A1, “NOVEL ERGOLINES AND METHODS OF TREATING MOOD DISORDERS” (Gilgamesh Pharma Inc., priority 2023, published 2026)
# Read-outs that look alike come from different tables or passages of the source.
# Assays:
# [1] = target: T1, 5-HT2A receptor (Homo sapiens, UniProt P28223); test: cell-based; type: cell-based; set-up: expressed in transfected cells; host or cells: HEK293, stably transfected; conditions: for Emax: HEK293, agonist, Ca2+ flux, HEK293, max dose, read-out: 5-HT2A % Act @ Max Dose
# T1 sequence (P28223 whole entry): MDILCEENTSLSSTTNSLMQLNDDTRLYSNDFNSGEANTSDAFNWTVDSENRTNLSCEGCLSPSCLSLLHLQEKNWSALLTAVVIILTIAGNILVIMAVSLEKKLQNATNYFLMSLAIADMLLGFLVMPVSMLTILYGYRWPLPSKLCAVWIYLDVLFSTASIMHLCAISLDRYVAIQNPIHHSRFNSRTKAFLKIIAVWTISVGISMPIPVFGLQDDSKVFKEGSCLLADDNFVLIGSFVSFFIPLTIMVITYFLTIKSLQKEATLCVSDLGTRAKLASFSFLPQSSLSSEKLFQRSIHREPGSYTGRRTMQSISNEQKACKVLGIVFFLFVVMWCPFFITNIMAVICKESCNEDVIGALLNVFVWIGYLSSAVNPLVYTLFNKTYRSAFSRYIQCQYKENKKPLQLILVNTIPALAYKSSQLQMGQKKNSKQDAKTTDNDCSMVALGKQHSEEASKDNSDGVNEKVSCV
# Method: (§1) Functional Assays at 5-HT2A, 5-HT2B, and 5-HT1A. Agonist activity at 5-HT2A, 5-HT2B, 5HT2C and 5-HT1A receptors was determined using a FLIPR Ca^2+ flux assay at WuXi AppTec (Hong Kong) Limited according to their standard protocols. Briefly, stably transfected cells expressing the receptor of interest and Gα15 in the case of 5-HT1A (HEK293 for 5-HT2A and 5-HT2B; CHO cells for 5-HT1A) were grown and plated in a 384 well plate and incubated at 37° C. and 5% CO2 overnight. A solution of 250 mM probenecid in 1 mL FLIPR assay buffer was prepared fresh. This was combined with a fluorescent dye (Fluo-4 Direct™) to make a final assay concentration of 2.5 mM. […] The fluorescent dye was then added to the assay plate along with assay buffer to a final volume of 40 μL. The cell plate was incubated for 50 min at 37° C. and 5% CO2 and placed into the FLIPR Tetra along with the compound plate. 10 μL of references and compounds were then transferred from the compound plate into the cell plate and the fluorescent signal was read.
# [2] = in vitro; type: in vitro ADME, rat; conditions: RLM (male Sprague-Dawley) 0.50 mg/mL, NADPH 1 mM, 1 μM compound, pH 7.4, 37° C., 60 min
# From the text: RLM Stability Pooled RLM from male Sprague-Dawley rats (Xenotech R1000) were used.
# [3] = target: T1, 5-HT2A receptor; test: cell-based; type: cell-based; conditions: agonist, beta-arrestin recruitment
# Method: Arrestin Functional Assay at 5-HT2A. Recruitment of beta-arrestin was determined using a PathHunter assay at Eurofins DiscoverX (Fremont, CA) according to their standard protocols. PathHunter GPCR beta-arrestin assays take advantage of DiscoverX's proprietary Enzyme Fragment Complementation technology. The GPCR is fused in frame with a small enzyme donor fragment ProLink™ (PK) and co-expressed in cells stably expressing a fusion protein of beta-arrestin and the larger, N-terminal deletion mutant of beta-galactosidase. Activation of the GPCR (5-HT2A receptor in this case) stimulates binding of beta-arrestin to the PK-tagged GPCR and forces complementation of the two enzyme fragments, resulting in the formation of an active beta-galactosidase enzyme. This interaction leads to an increase in enzyme activity that can be measured using chemiluminescent PathHunter Detection Reagents. Briefly, PathHunter cells expressing 5-HT2A receptors were seeded in a volume of 20 μL into 384-well plates and incubated at 37° C. for the appropriate time prior to testing. […] Plates were then imaged on a microplate reader and the agonist activity was calculated using the following formula: % Activity=100%×(mean RLU of test sample-mean RLU of vehicle control)/(mean MAX control ligand-mean RLU of vehicle control), where RLU=relative light units.
# [4] = target: T2, 5-HT1A receptor (Homo sapiens, UniProt P08908); test: cell-based; conditions: CHO, agonist, Ca2+ flux, CHO cells with Gα15, max dose; read-out: 5-HT1A % Act @ Max Dose
# T2 construct: expressed in transfected cells; host or cells: CHO cells, stably transfected
# T2 sequence (P08908 1-422): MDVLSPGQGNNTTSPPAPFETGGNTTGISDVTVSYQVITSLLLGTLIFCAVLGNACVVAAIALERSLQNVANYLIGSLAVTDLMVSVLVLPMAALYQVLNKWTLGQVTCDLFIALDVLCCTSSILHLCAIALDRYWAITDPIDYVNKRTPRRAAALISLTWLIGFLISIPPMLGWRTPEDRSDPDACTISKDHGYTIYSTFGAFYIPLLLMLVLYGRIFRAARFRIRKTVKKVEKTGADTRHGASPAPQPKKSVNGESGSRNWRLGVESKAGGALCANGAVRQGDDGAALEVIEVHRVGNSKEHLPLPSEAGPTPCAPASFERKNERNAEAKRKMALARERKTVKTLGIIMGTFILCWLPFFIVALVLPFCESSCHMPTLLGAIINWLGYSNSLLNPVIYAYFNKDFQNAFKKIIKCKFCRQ
# Method: as §1
# [5] = target: T3, 5-HT2B receptor (Homo sapiens, UniProt P41595); test: cell-based; type: cell-based; conditions: HEK293, agonist, Ca2+ flux, HEK293, max dose; read-out: 5-HT2B % Act @ Max Dose
# T3 construct: expressed in transfected cells; host or cells: HEK293, stably transfected
# T3 sequence (P41595 whole entry): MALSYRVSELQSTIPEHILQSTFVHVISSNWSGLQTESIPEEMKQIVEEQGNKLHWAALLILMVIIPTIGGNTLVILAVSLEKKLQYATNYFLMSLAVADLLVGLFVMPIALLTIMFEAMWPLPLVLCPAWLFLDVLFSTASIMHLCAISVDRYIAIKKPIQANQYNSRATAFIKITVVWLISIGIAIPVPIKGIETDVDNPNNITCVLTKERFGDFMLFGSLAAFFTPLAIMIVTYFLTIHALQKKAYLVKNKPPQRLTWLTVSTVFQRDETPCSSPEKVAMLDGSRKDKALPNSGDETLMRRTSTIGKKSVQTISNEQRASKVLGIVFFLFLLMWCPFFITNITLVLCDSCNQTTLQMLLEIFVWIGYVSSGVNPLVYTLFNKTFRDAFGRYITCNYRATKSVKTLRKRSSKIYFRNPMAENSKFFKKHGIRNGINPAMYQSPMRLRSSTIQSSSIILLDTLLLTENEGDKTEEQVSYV
# Method: as §1
# [6] = in vitro; type: in vitro ADME, mouse; conditions: MLM (male CD-1) 0.50 mg/mL, NADPH 1 mM, 1 μM compound, pH 7.4, 37° C., 60 min
# From the text: MLM Stability Pooled MLM from male CD-1 mice (BIOIVT M00501) were used.
# [7] = in vitro; type: in vitro ADME, human; conditions: HLM 0.50 mg/mL, NADPH 1 mM, 1 μM compound, pH 7.4, 37° C., 60 min
# [8] = target: T4, 5-HT1B receptor (Homo sapiens, UniProt P28222); test: cAMP accumulation functional assay at 5-HT1B; type: cell-based; conditions: agonist, cAMP accumulation, max dose; read-out: 5-HT1B % Act @ Max Dose
# T4 construct: expressed in transfected cells
# T4 sequence (P28222 whole entry): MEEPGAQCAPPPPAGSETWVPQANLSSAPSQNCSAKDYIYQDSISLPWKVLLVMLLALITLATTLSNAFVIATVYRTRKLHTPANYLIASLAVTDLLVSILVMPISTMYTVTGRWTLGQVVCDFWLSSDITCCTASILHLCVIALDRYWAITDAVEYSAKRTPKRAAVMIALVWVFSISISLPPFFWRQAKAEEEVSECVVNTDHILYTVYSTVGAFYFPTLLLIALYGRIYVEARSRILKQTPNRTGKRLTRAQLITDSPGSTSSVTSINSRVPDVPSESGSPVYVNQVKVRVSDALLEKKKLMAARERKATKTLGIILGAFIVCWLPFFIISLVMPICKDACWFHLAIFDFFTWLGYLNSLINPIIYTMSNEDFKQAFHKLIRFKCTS
# Method: Functional Assay at 5-HT1B. Agonist activity at 5-HT1B was determined using a CAMP accumulation protocol at WuXi AppTec (Hong Kong) Limited according to their standard protocols. Briefly, stably transfected cells were plated in an OptiPlate-384 well plate, incubated at RT for 60 mins, and cAMP standard solution (800 nM, 10 μL) was added to the blank well. Then, 10 μL detection reagent was added to each well, the plate incubated for 60 mins at RT, and the plate read using En Vision.
Compound,Emax [1] [%],Intrinsic clearance (Clint) [2] [µL/min/mg],half-life (t1/2) [2] [min],"EC50 ([3]; PathHunter, read-out: 5-HT2A Arrestin EC50) [nM]","Emax ([3]; max dose, read-out: 5-HT2A Arrestin % Act @ Max Dose) [%]",Emax [4] [%],Emax [5] [%],Intrinsic clearance (Clint) [6] [µL/min/mg],half-life (t1/2) [6] [min],Intrinsic clearance (Clint) [7] [µL/min/mg],half-life (t1/2) [7] [min],Emax [8] [%],selectivity for 5-HT2A over the other serotonin receptors tested ([1]; functional agonist activity)
"CCN(CC)C(=O)[C@@H]1C=C2c3cccc4[nH]cc(c34)C[C@H]2N(CCc2ccccn2)C1 [Compound 23, (6aR,9R)—N,N-diethyl-7-(2-(pyridin-2-yl)ethyl)-4,6,6a,7,8,9-hexahydroindolo[4,3-fg]quinoline-9-carboxamide]",85.4,331.7,4.2,5.97,65.2,46.2,12.5,768.7,1.8,193.3,7.2,83.7,–
"CCN(CC)C(=O)[C@@H]1C=C2c3cccc4[nH]cc(c34)C[C@H]2N(CCF)C1 [Compound 39, (6aR,9R)—N,N-diethyl-7-(2-fluoroethyl)-4,6,6a,7,8,9-hexahydroindolo[4,3-fg]quinoline-9-carboxamide]",95.5,–,–,–,–,91.2,85.5,–,–,–,–,99,–
"CC[C@@H](C)NC(=O)[C@@H]1C=C2c3cccc4[nH]cc(c34)C[C@H]2N(CCC(F)(F)F)C1 [Compound 40, (6aR,9R)—N—((R)-sec-butyl)-7-(3,3,3-trifluoropropyl)-4,6,6a,7,8,9-hexahydroindolo[4,3-fg]quinoline-9-carboxamide]",45.1,–,–,–,–,22.3,8.46,–,–,–,–,62.1,highly selective for 5-HT2A
"CCN(CC)C(=O)[C@@H]1C=C2c3cccc4[nH]c(Br)c(c34)C[C@H]2N(CCCF)C1 [Compound 41, (6aR,9R)-5-bromo-N,N-diethyl-7-(3-fluoropropyl)-4,6,6a,7,8,9-hexahydroindolo[4,3-fg]quinoline-9-carboxamide]",75.4,–,–,–,–,39.8,84.5,–,–,–,–,61.5,–
"CCCN1C[C@H](C(=O)N[C@H](C)CC)C=C2c3cccc4[nH]c(Br)c(c34)C[C@H]21 [Compound 46, (6aR,9R)-5-bromo-N—((R)-sec-butyl)-7-propyl-4,6,6a,7,8,9-hexahydroindolo[4,3-fg]quinoline-9-carboxamide]",69.5,–,–,–,–,69.5,79,–,–,–,–,78.8,–
"CCCN1C[C@H](C(=O)N2[C@@H](C)C[C@@H]2C)C=C2c3cccc4[nH]c(Br)c(c34)C[C@H]21 [Compound 47, ((6aR,9R)-5-bromo-7-propyl-4,6,6a,7,8,9-hexahydroindolo[4,3-fg]quinolin-9-yl)((2S,4S)-2,4-dimethylazetidin-1-yl)methanone]",57,–,–,–,–,62.1,87,–,–,–,–,76.2,–
